Measured values: US10294202B2, “Pyrrolidinones as herbicides” (FMC Corporation, priority 2013, dated 2019)

What was measured:
Experiment in all cases: Test A pre-/postemergence herbicide test
corn = type: in vivo, Zea mays
Description: (§1) Seeds of plant species selected from bamyardgrass (Echinochloa crus-galli), kochia (Kochia scoparia), ragweed (common ragweed, Ambrosia elatior), ryegrass, Italian (Italian ryegrass, Lolium multiflorum), crabgrass, large (large crabgrass Digitaria sanguinalis), giant foxtail (Setaria faberii), morningglory (Ipomoea spp.), pigweed (Amaranthus retroflexus), velvetleaf (Abutilon theophrasti), wheat (Triticum aestivum), and corn (Zea mays) were planted into a blend of loam soil and sand and treated preemergence with a directed soil spray using test chemicals formulated in a non-phytotoxic solvent mixture which included a surfactant. At the same time, plants selected from these crop and weed species and also blackgrass (Alopecurus myosuroides), and galium (catchweed bedstraw, Galium aparine) were planted in pots containing the same blend of loam soil and sand and treated with postemergence applications of test chemicals formulated in the same manner. Plants ranged in height from 2 to 10 cm and were in the one- to two-leaf stage for the postemergence treatment. Treated plants and untreated controls were maintained in a greenhouse for approximately 10 days, after which time all treated plants were compared to untreated controls and visually evaluated for injury. Plant response ratings, summarized in Table A, are based on a 0 to 100 scale where 0 is no effect and 100 is complete control. A dash (-) response means no test result.

velvetleaf = type: in vivo, Abutilon theophrasti
Description: as §1

wheat = type: in vivo, Triticum aestivum
Description: as §1

morningglory = type: in vivo, Ipomoea spp.
Method in brief: (§2)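 Both application timings used compounds in a non-phytotoxic solvent plus surfactant. Pre-emergence: soil sprayed directly after seeding into loam/sand. Post-emergence: foliage of 2–10 cm seedlings (1–2 leaves) sprayed. Injury rated ~10 days later, 0–100.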

barnyardgrass = type: in vivo, Echinochloa crus-galli
Description: as §1

crabgrass, large = type: in vivo, Digitaria sanguinalis
Method in brief: as §2

pigweed = type: in vivo, Amaranthus retroflexus
Description: as §1

giant foxtail = type: in vivo, Setaria faberii
Method in brief: as §2

[1] = Postemergence, 125 g ai/ha, 0 to 100 scale, 0 no effect, 100 complete control
[2] = Postemergence, 500 g ai/ha, 0 to 100 scale (0 no effect, 100 complete control)
[3] = Preemergence, 125 g ai/ha, visual rating on 0 to 100 scale (0 no effect, 100 complete control)
[4] = preemergence, 500 g ai/ha, 0 to 100 scale
[5] = Postemergence, 1000 g ai/ha, 0 to 100 scale (0 no effect, 100 complete control)
[6] = Preemergence, 1000 g ai/ha, visual rating on 0 to 100 scale (0 no effect, 100 complete control), approx. 10 days
[7] = preemergence, 1000 g ai/ha, 0 to 100 scale

Structure (SMILES): O=C1NCC(c2cc(Cl)cc(Cl)c2)C1C(=O)Nc1ccccc1F (racemic) [Compounds 90]
- Plant response rating, Corn (corn; [1]): 0
- Plant response rating, Corn (corn; [2]): 30
- Corn plant response rating (corn; [3]): 0
- Plant response rating, Corn (corn; [4]): 0
- Plant response rating, Velvetleaf (velvetleaf; [1]): 0
- Plant response rating, Velvetleaf (velvetleaf; [2]): 0
- Velvetleaf plant response rating (velvetleaf; [3]): 0
- Plant response rating, Velvetleaf (velvetleaf; [4]): 0
- Plant response rating, Wheat (wheat; [1]): 0
- Plant response rating, Wheat (wheat; [2]): 0
- Wheat plant response rating (wheat; [3]): 0
- Plant response rating, Wheat (wheat; [4]): 0
- Plant response rating, Morningglory (morningglory; [1]): 0
- Plant response rating, Morningglory (morningglory; [2]): 0
- Morningglory plant response rating (morningglory; [3]): 0
- Plant response rating, Morningglory (morningglory; [4]): 0
- Plant response rating, Barnyardgrass (barnyardgrass; [1]): 30
- Plant response rating, Barnyardgrass (barnyardgrass; [2]): 70
- Barnyardgrass plant response rating (barnyardgrass; [3]): 30
- Plant response rating, Barnyardgrass (barnyardgrass; preemergence, 500 g ai/ha, 0 to 100 scale (0 no effect, 100 complete control)): 70
- Plant response rating, Crabgrass, Large (crabgrass, large; [1]): 50
- Plant response rating, Crabgrass, Large (crabgrass, large; [2]): 70
- Crabgrass, Large plant response rating (crabgrass, large; [3]): 70
- Plant response rating, Crabgrass, Large (crabgrass, large; [4]): 80
- Plant response rating, Pigweed (pigweed; [1]): 0
- Plant response rating, Pigweed (pigweed; [2]): 20
- Pigweed plant response rating (pigweed; [3]): 0
- Plant response rating, Pigweed (pigweed; [4]): 0
- Plant response rating, Foxtail, Giant (giant foxtail; [1]): 40
- Plant response rating, Foxtail, Giant (giant foxtail; [2]): 70
- Foxtail, Giant plant response rating (giant foxtail; [3]): 60
- Plant response rating, Foxtail, Giant (giant foxtail; [4]): 70

Structure (SMILES): O=C1NCC(c2ccc(F)c(F)c2)C1C(=O)Nc1ccncc1F (stereo not shown) [Compound 22]
- Plant response rating, Corn (corn; [5]): 0
- Plant response rating, Corn (corn; [6]): 0
- Plant response rating, Velvetleaf (velvetleaf; [5]): 0
- Plant response rating, Velvetleaf (velvetleaf; [6]): 0
- Plant response rating, Wheat (wheat; [5]): 0
- Plant response rating, Wheat (wheat; [6]): 0
- Plant response rating, Morningglory (morningglory; [5]): 0
- Plant response rating, Morningglory (morningglory; [6]): 0
- Plant response rating, Barnyardgrass (barnyardgrass; [5]): 0
- Plant response rating, Barnyardgrass (barnyardgrass; [6]): 0
- Plant response rating, Crabgrass, Large (crabgrass, large; [5]): 0
- Plant response rating, Crabgrass, Large (crabgrass, large; [6]): 70
- Plant response rating, Pigweed (pigweed; [5]): 0
- Plant response rating, Foxtail, Giant (giant foxtail; [5]): 0
- Plant response rating, Foxtail, Giant (giant foxtail; [6]): 30

Structure (SMILES): CN(C(=O)C1C(=O)NCC1c1ccc(F)c(F)c1)c1ccccc1F (stereo not shown) [Compound 24]
- Plant response rating, Corn (corn; [5]): 0
- Plant response rating, Corn (corn; [6]): 0
- Plant response rating, Velvetleaf (velvetleaf; [5]): 0
- Plant response rating, Velvetleaf (velvetleaf; [6]): 60
- Plant response rating, Wheat (wheat; [5]): 0
- Plant response rating, Wheat (wheat; [6]): 0
- Plant response rating, Morningglory (morningglory; [5]): 0
- Plant response rating, Morningglory (morningglory; [6]): 0
- Plant response rating, Barnyardgrass (barnyardgrass; [5]): 0
- Plant response rating, Barnyardgrass (barnyardgrass; [6]): 0
- Plant response rating, Crabgrass, Large (crabgrass, large; [5]): 30
- Plant response rating, Crabgrass, Large (crabgrass, large; [6]): 70
- Plant response rating, Pigweed (pigweed; [5]): 0
- Plant response rating, Pigweed (pigweed; [6]): 0
- Plant response rating, Foxtail, Giant (giant foxtail; [5]): 0
- Plant response rating, Foxtail, Giant (giant foxtail; [6]): 40

Structure (SMILES): C#CCN(C(=O)C1C(=O)NCC1c1ccc(F)c(F)c1)c1ccccc1[N+](=O)[O-] (stereo not shown) [Compound 265]
- Plant response rating, Corn (corn; [5]): 0
- Plant response rating, Corn (corn; [7]): 0
- Plant response rating, Velvetleaf (velvetleaf; [5]): 0
- Plant response rating, Velvetleaf (velvetleaf; [7]): 0
- Plant response rating, Wheat (wheat; [5]): 0
- Plant response rating, Wheat (wheat; [7]): 0
- Plant response rating, Morningglory (morningglory; [5]): 0
- Plant response rating, Morningglory (morningglory; [7]): 0
- Plant response rating, Barnyardgrass (barnyardgrass; [5]): 0
- Plant response rating, Barnyardgrass (barnyardgrass; preemergence, 1000 g ai/ha, 0 to 100 scale (0 no effect, 100 complete control)): 0
- Plant response rating, Crabgrass, Large (crabgrass, large; [5]): 0
- Plant response rating, Crabgrass, Large (crabgrass, large; [7]): 0
- Plant response rating, Pigweed (pigweed; [5]): 0
- Plant response rating, Pigweed (pigweed; [7]): 0
- Plant response rating, Foxtail, Giant (giant foxtail; [5]): 0
- Plant response rating, Foxtail, Giant (giant foxtail; [7]): 0
